The values that follow come from patent US9066922B2, “Pharmaceutical composition for the treatment or prevention of diseases involving obesity, diabetes, metabolic syndrome, neuro-degenerative diseases and mitochondria dysfunction diseases” (MD BIOALPHA CO., LTD., priority 2005, dated 2015).

Series [1] relates to Sprague-Dawley rats. The series is described as follows: Acute toxicity test, peritoneal administration. It is filed as in vivo. The conditions noted are these: peritoneal, 50, 100 and 200 mg/kg, observed for 2 weeks, vs control group.
For a further series, the system named is AMPK. The series is described as follows: Determination of AMPK activation in C2C12 myoblast cells (SAMS peptide, [γ-32P]ATP). Format: cell-based. The note with it: differentiated C2C12 myoblast cells, 5 μg/ml, compared with control (DMSO 0.5% = 1). The protocol:
Myoblast cells, C2C12, were cultured in DMEM containing 10% bovine calf serum. When a cell density reached a range of about 85% to 90%, the culture medium was replaced with a medium containing 1% bovine calf serum to induce differentiation of cells. The thus-differentiated myoblast cells were treated with samples synthesized in Examples 1 through 29 at a concentration of 5 μg/ml, and compared with a control group. Enzymatic activity of AMPK was determined as follows. Firstly, C2C12 cells were lysed to obtain protein extracts and then ammonium sulfate was added to a final concentration of 30%, thereby precipitating proteins. Protein precipitates were dissolved in a buffer (62.5 mM Hepes, pH 7.2, 62.5 mM NaCl, 62.5 mM NaF, 1.25 mM Na pyrophosphate, 1.25 mM EDTA, 1 mM DTT, 0.1 mM PMSF, and 200 μM AMP). Thereafter, 200 μM SAMS peptide (HMRSAMSGLHLVKRR: the underlined serine residue is a phosphorylation site, as an AMPK phosphorylation site of acetyl-CoA carboxylase) and [γ-32P]ATP were added thereto and reactants were reacted for 10 minutes at 30° C. This was followed by spotting of the resulting reaction solution on p81 phosphocellulose paper. The p81 paper was washed with a 3% phosphoric acid solution and radioactivity thereof was measured. For each reaction condition, reactions involving no SAMS peptide were also conducted and basic values were subtracted from the thus-observed values.

For series [2], the system named is C57BL/6JL Lep ob/Lep ob mice. As to the kind of experiment: Blood lipid, glucose and enzyme levels in obese mice (ob/ob). It is filed as in vivo. Set-up: unit not given here. The conditions noted are these: 100 mg/kg for 26 days. The text has this:
(§1) 10-week-old C57BL/6JL Lep ob/Lep ob male mice having obesity characteristics and predisposition were purchased from Daehan Biolink Co., Ltd. (Chungchongbuk-do, Korea). Animals were raised in a breeding room maintained at a temperature of 23 C, 55% humidity, illumination of 300 to 500 lux, a 12-h light/dark (L/D) cycle, and ventilation of 10 to 18 times/hr. Animals were fed ad libitum pellets of Purina Rodent Laboratory Chow 5001 (purchased from Purina Mills Inc., St. Louis, Mo., USA) as a solid feed for experimental animals and tap water as drinking water. Mice were allowed to acclimate to new environment of the breeding room for two weeks and were then administered some pyrano-o-naphthoquinone and furano-o-naphthoquinone derivatives synthesized according to the present invention at doses of 100 mg/kg for 26 days. Observation was made on changes in body weight, blood glucose and dietary intake, with respect to a time course of administration. After administration was complete, Computed Tomography (CT) was performed to confirm changes in adipose tissue distribution of animals, changes in fat distribution of tissues in various organs, changes in sizes of adipocytes, and changes in glucose, lipid and enzyme levels in blood and liver.

In series [3] the test system is C57BL/6JL Lep ob/Lep ob mice. The series is described as follows: Weight loss effects in obese mice (ob/ob): body weight. It is filed as in vivo. The note with it: 100 mg/kg for 26 days; for change in vivo at 100 mg/kg: Mus musculus, 624 h, read-out: Increase in BW.
Text: as §1

In series [4] the test system is Sprague-Dawley rats. The series is described as follows: Acute toxicity test, oral administration. The conditions noted are these: oral, 50, 100 and 200 mg/kg, observed for 2 weeks, vs control group. Format: in vivo.

For `CC1OC2=C(C(=O)C(=O)c3ccccc32)C1(C)C` (centres unmarked) [Compound 2, Dunnione], the visually observable symptoms result with Sprague-Dawley rats [1] is reported as “no visually observable symptoms with exception of weight loss”. Moreover, the AMPK fold in the series with AMPK is listed as 1.4 fold. Moreover, in series [2], the Cholesterol was 123, the GOT is reported as 50, the GPT turned out to be 43 and the Glucose is 125. Besides, the Triglyceride in series [2] was 154. In series [3], the “Final BW” value is recorded as 28.7 g and the change in vivo at 100 mg/kg was -46.2%. For the same compound, in the series with Sprague-Dawley rats [4], the visually observable symptoms entry is “no visually observable symptoms with exception of weight loss”.

Consider `CC1C2=C(OC1(C)C)c1ccccc1C(=O)C2=O` (centres unmarked) [Compound 3], for which, in the series with Sprague-Dawley rats [1], the visually observable symptoms result is “no visually observable symptoms with exception of weight loss”. This compound came in with an AMPK fold in the series with AMPK of 3.2 fold. In series [2], this compound yielded a Cholesterol of 128, a GOT of 36, a GPT of 32 and a Glucose of 122. This compound also displayed a Triglyceride in series [2] of 129. Further, in series [3], the “Final BW” value turned out to be 39.7 g and the change in vivo at 100 mg/kg was -27.9%. Also, the visually observable symptoms entry in the series on Sprague-Dawley rats [4] was “no visually observable symptoms with exception of weight loss”.

With `CC1(C)CC2=C(O1)c1ccccc1C(=O)C2=O` [Compound 4], in the series with Sprague-Dawley rats [1], the visually observable symptoms result was “no visually observable symptoms with exception of weight loss”. In the series on AMPK, the AMPK fold came out at 2.2 fold. In series [2], this compound registered a Cholesterol of 130, a GOT of 48, a GPT of 44 and a Glucose of 134. This compound also gave a Triglyceride in series [2] of 148. Also, in series [3], the “Final BW” value came out at 40.0 g and the change in vivo at 100 mg/kg was -27.8%. Further, in the series with Sprague-Dawley rats [4], the visually observable symptoms result was “no visually observable symptoms with exception of weight loss”.

On to `CC(C)=C/C(C)=C/C1(C)CCC2=C(O1)c1ccccc1C(=O)C2=O` (centres unmarked) [Compound 14], for which the visually observable symptoms result with Sprague-Dawley rats [1] is reported as “no visually observable symptoms with exception of weight loss”. Besides, in the series on AMPK, the AMPK fold is recorded as 1.5 fold. In addition, in series [2], the Cholesterol came to 160, the GOT worked out at 95, the GPT was determined as 87 and the Glucose came to 193. In series [2], this compound came in with a Triglyceride of 216. In series [3], the “Final BW” value was 61.3 g and the change in vivo at 100 mg/kg is -4.7%. In addition, the visually observable symptoms result in the series on Sprague-Dawley rats [4] was “no visually observable symptoms with exception of weight loss”.

`C[C@@H]1C2=C(O[C@@H]1C)c1ccccc1C(=O)C2=O` [Compound 17]: the visually observable symptoms entry in the series with Sprague-Dawley rats [1] and with Sprague-Dawley rats [4] was “no visually observable symptoms with exception of weight loss” throughout. The AMPK fold in the series on AMPK amounted to 2.2 fold.

Consider `CCC1(C)CCC2=C(O1)c1ccccc1C(=O)C2=O` (centres unmarked) [Compound 24], for which the visually observable symptoms entry in the series on Sprague-Dawley rats [1] and with Sprague-Dawley rats [4] was “no visually observable symptoms with exception of weight loss” in each case. In addition, the AMPK fold with AMPK is 2.1 fold.

As to `CCC1(CC)CCC2=C(O1)c1ccccc1C(=O)C2=O` [Compound 25], the visually observable symptoms result with Sprague-Dawley rats [1] and with Sprague-Dawley rats [4] was “no visually observable symptoms with exception of weight loss” in each case. Also, in the series with AMPK, the AMPK fold is on record as 1.8 fold.

For `CC1(c2ccccc2)CCC2=C(O1)c1ccccc1C(=O)C2=O` (centres unmarked) [Compound 26], in the series with Sprague-Dawley rats [1], the visually observable symptoms result is “no visually observable symptoms with exception of weight loss”. Besides, the AMPK fold with AMPK came out at 2.2 fold. In series [2], this compound showed a Cholesterol of 128, a GOT of 40, a GPT of 33 and a Glucose of 131. Moreover, the Triglyceride in series [2] worked out at 137. Moreover, in series [3], the “Final BW” value amounted to 42.3 g and the change in vivo at 100 mg/kg was -25.5%. In the series on Sprague-Dawley rats [4], the visually observable symptoms entry was “no visually observable symptoms with exception of weight loss”.
